Experiments:
Type in all cases: cell-based
[1] = system: APJ (Apelin receptor); ERK1/2 phosphorylation; assay: ERK1/2 activation assay, Western blot; conditions: for Bias factor / Log (Bias): WB-ERK over Ca2+, reference Apelin-13; for Log (Bias): footnote a = statistically insignificant; for log (τ/KA) / Δlog (τ/KA): WB-ERK; for log (τ/KA): Black–Leff operational model; for Δlog (τ/KA): relative to Apelin-13
Method: HEK293 cells expressing APJ were spilt into 6-well plates at a density of 10^5 cells per well and cultured until reaching approximately 90% confluence. The cells were treated with different concentrations of peptide ligands (0.01–1,000 nM). The cells were washed twice with Phosphate-buffered saline (PBS) and lyzed in RIPA lysis buffer (50 mm Tris–HCl, pH 7.41, 50 mM NaCl, 1 mM EDTA, 10 mM MgCl2, 1 mM DTT, 1 mM PMSF, 1 μg/ml […], […]), 1.4 μg/ml […] and 0.5% (v/v) NP-40). After centrifugation at 14,000 rpm at 4°C for 30 min, the supernatant was collected and separated by 10% SDS-PAGE. Gel transfer takes about 60 min at 250 mA. The nitrocellulose membrane was sealed with 5% skim milk dissolved in 0.1% Triton X-100 of PBS. The primary ERK1/2 antibody was diluted with 5% bovine serum albumin (BSA) at 1:2,000, and the second antibody was diluted with 1:5,000. The ECL reagent was applied to the membrane. The films were scanned by Vanoscan Lide 700F scanner and analyzed by scion image software. The dose-response curve was fitted using the data detected at 5 min after stimulation.
(§1) The concentration-response data for the ligands in various assays were analyzed to determine the biases of the ligands for G protein dependent signaling or β-arrestin dependent signaling, according to a previously published method ([Kenakin et al., 2012]; [Hager et al., 2016]; [Hothersall et al., 2017]). Briefly, the concentration-response data for each ligand were fitted to the Black–Leff operation model to obtain the values of τ and K A, using the following equation: Response=[A]^nτ^nEm/[A]^nτ^n+([A]KA)^n where [A] is the concentration of the agonist, E m is the maximal response of the system, n is the transducer slope, and K A and τ describe the affinity and efficacy of the agonist, respectively. In the data fitting, the reparametrized form of the equation proposed by [Kenakin et al. (2012)] was used: Response=Em/1+exp{nln[1+exp(β1)/[A]]−nβ2} where β 1 and β 2 are the natural logarithm of K A and τ, respectively, and E m was set to 1. Thus, for each concentration-response curve, a non-linear regression was performed to fit the above equation to give β 1 and β 2 (as well as n). Log (τ/K A) values (“transduction coefficients”) for each ligand vs. each pathway were obtained. […] The ΔΔlog (τ/K A), or Log (Bias), which is the logarithm of the bias factor for a given pathway over a reference pathway (here, intracellular calcium release), was calculated for each ligand as Δlog (τ/K A)–Δlog (τ/K A)Calcium. The 95% confidence interval (CI) was expressed as the mean ± standard error; Log (Bias) values, whose 95% CI crosses 0, were considered statistically insignificant.
The data were analyzed using GraphPad Prism v5.0. All the data are presented as the mean ± SEM. Differences between groups were compared by one-way analysis of variants (ANOVA), followed by post-hoc tests (Tukey’s test), When p < 0.05, the difference was considered significant. All experiments were repeated at least four times. The dose-response curves were generated using non-linear fitting model log (agonist) vs. response (three-parameters), with Hill Slope held to 1, i.e., Y = Bottom + (Top-Bottom)/(1 + 10^(LogEC50-X)).
FIGURE 4 Changes of ERK1/2 phosphorylation in HEK293 cells with stable expression of APJ: (A–F) after 5-min stimulation by the six agonists in different concentrations (0.01–1,000 nM) (G and H) ERK was measured after 5 or 15 min stimulation with six peptides at a concentration of 100 nM. Levels of p-ERK, total ERK were determined by Western blot. The data represent means ± SEM of four independent experiments.

[2] = system: β-arrestin 2–AP2 interaction induced by APJ; assay: BRET interaction of β-arrestin 2 and β2-adaptin (AP2) induced by APJ; conditions: for log (τ/KA) / Δlog (τ/KA): APJ-β-arrestin2-AP2; for log (τ/KA): Black–Leff operational model; for Δlog (τ/KA): relative to Apelin-13; for Bias factor / Log (Bias): APJ-β-arrestin2-AP2 over Ca2+, reference Apelin-13; for Log (Bias): footnote a = statistically insignificant
Method: (§2) To detect the potencies of different peptide ligands for APJ in living cells, real-time kinetic bioluminescence resonance energy transfer (BRET) assays were carried out as follows. HEK293 cells were grown to 80–90% confluence in 24-well plates and transiently transfected with various Rluc-, EYFP-, or Venus-tagged constructs ([Chen et al., 2014]; [Liu et al., 2016]). Approximately 36 h after transfection, the long-acting luciferase substrate EnduRen (E6481, Promega, Beijing Biotech Co., Ltd.) was added to each well at a final concentration of 60 μM and cells were incubated for 2 h at 37°C in a 5% CO2 incubator. BRET experiments were carried out using a Mithras LB941 plate reader (Berthold Technologies, Bad Wildbad, Germany) with three filters: a Rluc filter (400–475 nm), a Venus filter (515–575 nm) and an EGFP filter (500–550 nm) ([Liu et al., 2016]; [Ji et al., 2017]). The BRET ratio was calculated as the ratio of the emission at 535 ± 30 nm to that at 485 ± 20 nm. The results are expressed as the mBRET (mBRET = 1,000 × BRET ratio) ([Pfleger et al., 2006a]; [Pfleger et al., 2006b]). We use high glucose as a negative control group.
(§3) HEK293 cells were transiently co-transfected with the designated Rluc and GFP2 or Venus or EYFP-labeled constructs. Twenty-four hours after transfection, the cells were harvested in phenol red free medium containing 5% FCS in HEPES buffer and seeded in 96 well white microplate coated with poly-D-lysine. After 24 h, cells were washed twice in PBS and re-suspended in PBS containing 0.5 mM MgCl2 and 0.1% glucose. Coelenterazine h substrate was added at a final concentration of 5 μM in the total volume of 50 μL/well. Kinetic-response and dose-response curve of the recruitment of GRKs or β-arrestin 1 and β-arrestin 2 or AP2 to the APJ by six peptides measured by BRET. […] The BRET signals between receptor and GRKs/β-arrestin1 and 2/AP2 were recorded at 10 min (GRK2/5) or 15 min (β-arrestin1 and) or 30 min (AP2) after agonist stimulation. We use high glucose as a control group. BRET assays were performed as described previously ([Xue et al., 2018]). […] This signal is defined as the ligand induced BRET ratio.
as §1
(§4) The data were analyzed using GraphPad Prism v5.0. All the data are presented as the mean ± SEM.

APJ–GRK2 interaction = assay: BRET recruitment of GRK2 to APJ; conditions: for log (τ/KA) / Δlog (τ/KA): APJ-GRK2; for log (τ/KA): Black–Leff operational model; for Δlog (τ/KA): relative to Apelin-13; for Bias factor / Log (Bias): APJ-GRK2 over Ca2+, reference Apelin-13; for Log (Bias): footnote a = statistically insignificant
Method: as §2, §3, §1, §4

Compound	ERK1/2 phosphorylation (in words) ([1]; 100 nM, 15 min)	bias over calcium release ([1]; ERK pathway) [fold]	Bias factor [1]	Log (Bias) [1]	log (τ/KA) [1]	Δlog (τ/KA) [1]	log (τ/KA) [2]	Δlog (τ/KA) [2]	Bias factor [2]	Log (Bias) [2]	log (τ/KA) (APJ–GRK2 interaction)	Δlog (τ/KA) (APJ–GRK2 interaction)	Bias factor (APJ–GRK2 interaction)	Log (Bias) (APJ–GRK2 interaction)	Log (Bias) (APJ–GRK2 interaction; listed as ELA-32)	bias over calcium release (APJ–GRK2 interaction; APJ–GRK2)
CSCC[C@H](NC(=O)[C@@H]1CSSC[C@H](NC(=O)[C@H](CC(N)=O)NC(=O)[C@H](Cc2c[nH]cn2)NC(=O)[C@H](CCCCN)NC(=O)[C@H](CCCNC(=N)N)NC(=O)[C@@H](N)CC(C)C)C(=O)N[C@@H](CC(C)C)C(=O)N[C@@H](CCC(N)=O)C(=O)N[C@@H](CCCNC(=N)N)C(=O)N[C@@H](CCCNC(=N)N)C(=O)N1)C(=O)N1CCC[C@H]1C(=O)N[C@@H](CC(C)C)C(=O)N[C@@H](Cc1c[nH]cn1)C(=O)N[C@@H](CO)C(=O)N[C@@H](CCCNC(=N)N)C(=O)N[C@H](C(=O)N1CCC[C@H]1C(=O)N[C@@H](Cc1ccccc1)C(=O)N1CCC[C@H]1C(=O)O)C(C)C [Elabela-21]	significantly higher than the activation of ERK1/2 by the other ligands	0.1	0.1	−1.0 ± 0.3	−2.5 ± 0.2	−2.6 ± 0.2	−2.1 ± 0.4	−1.9 ± 0.5	0.5	−0.3 ± 0.6 ^a	−1.5 ± 0.2	0.6 ± 0.3	169.0	2.2 ± 0.4	–	–
CSCC[C@H](NC(=O)[C@@H](NC(=O)[C@H](CC(C)C)NC(=O)[C@H](CC(N)=O)NC(=O)[C@@H](NC(=O)[C@@H]1CCCN1C(=O)[C@H](CCCNC(=N)N)NC(=O)[C@@H](N)CCC(N)=O)C(C)C)[C@@H](C)O)C(=O)N[C@@H](CCCNC(=N)N)C(=O)N[C@@H](CCCNC(=N)N)C(=O)N[C@@H](CCCCN)C(=O)N[C@@H](CC(C)C)C(=O)N[C@@H](CCCNC(=N)N)C(=O)N[C@@H](CCCCN)C(=O)N[C@@H](Cc1c[nH]cn1)C(=O)N[C@@H](CC(N)=O)C(=O)N[C@H]1CSSC[C@@H](C(=O)N[C@@H](CCSC)C(=O)N2CCC[C@H]2C(=O)N[C@@H](CC(C)C)C(=O)N[C@@H](Cc2c[nH]cn2)C(=O)N[C@@H](CO)C(=O)N[C@@H](CCCNC(=N)N)C(=O)N[C@H](C(=O)N2CCC[C@H]2C(=O)N[C@@H](Cc2ccccc2)C(=O)N2CCC[C@H]2C(=O)O)C(C)C)NC(=O)[C@H](CCCNC(=N)N)NC(=O)[C@H](CCCNC(=N)N)NC(=O)[C@H](CCC(N)=O)NC(=O)[C@H](CC(C)C)NC1=O [Elabela-32]	–	–	3.0	0.5 ± 0.3	−1.3 ± 0.2	−1.4 ± 0.2	−2.0 ± 0.4	−1.8 ± 0.5	1.1	0.0 ± 0.6 ^a	−0.8 ± 0.2	1.3 ± 0.3	1,604.0	3.2	3.2 ± 0.4	> 1,500 fold

Source: publication PMC7970304, “The Effects of Apelin and Elabela Ligands on Apelin Receptor Distinct Signaling Profiles” (Frontiers in Pharmacology, 2021)
